This test deals with E. coli. The test is described as follows: Reductions of E. coli organisms.

The structures appear in SMILES notation.

The source of these data is patent US20070141341A1, “Coating containing denatured aloe vera, for covering either chlorine-generating compositions or other hazardous chemicals and method for making” (priority 2005, published 2007).

Consider `O=c1n(Cl)c(=O)n(Cl)c(=O)n1Cl` [Uncoated ACL, trichloroisocyanuric acid], for which the “E. coli remaining after 5 minutes” value (after 5 minutes) came out at 0. The “E. coli remaining after: ½ hour” value (after ½ hour) is recorded as “Slightly”.
